Series [1] is described as follows: Lipophilicity by RP-TLC. It counts as physicochemical. Conditions: RP-18 TLC, water/methanol, extrapolated to 100% water. How it is done:
For comparison, the active arylmethyl-triazine compounds previously found (1–3) were also examined. Stationary phase RP-18 and mixtures of water/methanol […] as a mobile phase were employed. RM values were calculated from the RF data obtained. […] The regression coefficients (r^2) determined for all compounds were higher than 0.95. On the basis of the linear relationship between RM values and the volume fraction of methanol, values of RM0 in the systems analyzed corresponding to 100% of water were obtained by extrapolation. RM0 values received for the compounds tested ranged from 3.14 to 4.49 (Figure 6).
The mobile phases were prepared by mixing the respective amounts of water and organic modifier (methanol) in a range from 40 to 90% (v/v) in 5% increments. TLC was performed on Silica gel 60RP-18 F254 plates (7 × 10 cm) plates (Merck, Darmstadt, Germany). Methanol was used to prepare the solutions of the substances. Solutions (10 µL) of the analyzed compounds were applied to the plates as 5 mm bands, 10 mm apart and 10 mm from the lower edge and sides of the plates, by using Linomat V applicator (Camag, Basel, Switzerland). The vertical chamber (Sigma–Aldrich, St. Louis, MI, USA), 20 × 10 × 18 cm in size, was saturated with mobile phase for 20 min. Development was carried out over 9 cm from the starting line at a temperature of 20 °C. Next, the plates were dried at room temperature, and the spots were observed under ultraviolet light at 254 nm and/or 366 nm (UV lamp, Camag, Basel, Switzerland). In each case, sharp and symmetric spots without a tendency for tailing were obtained. Each experiment was run in triplicate and mean RF (retardation factor) values were calculated.
Starting from the RF values, the RM parameters were computed as described in the formula:RM = log(1/RF − 1)
The linear correlations between the RM values of the substances and the concentration of methanol in mobile phases were calculated for each compound with the Soczewiński-Wachtmeister equation [22]:RM = RM0 + aC where C is the concentration of the organic modifier (in %) in the mobile phase, a is the slope, and RM0 is the […].

The target in series [2] is T1, human serotonin 5-HT6R (Homo sapiens, UniProt P50406).
T1 construct: expressed in transfected cells; host or cells: HEK-293
The series can be described thus: Radioligand binding assay, 5-HT6R, [3H]-LSD displacement. Conditions: human receptor stably expressed in HEK-293 cells; mean of at least two independent experiments; read-out: Ki 5-HT6 [3H]-LSD. On the procedure:
Five selective radioligands were employed (Table 1).
Radioligand binding assays were used to determine the affinity of the synthesized compounds for human serotonin 5-HT6R, which were stably expressed in HEK-293 cells. […] Each compound was tested in triplicate at 7 to 8 different concentrations (10^−11 to 10^−4 M). The inhibition constants (Ki) were calculated using the Cheng–Prusoff equation [40], and the results are expressed as the mean of at least two independent experiments.

Series [3] deals with T2, dopaminergic D2LR (Homo sapiens, UniProt P14416).
T2 construct: expressed in transfected cells; host or cells: HEK-293
The series can be described thus: Radioligand binding assay, D2LR, [3H]-Raclopride. Conditions: human D2L receptor stably expressed in HEK-293 cells; read-out: Ki D2 [3H]-Raclopride.

The target in series [4] is T3, 5-HT7bR (Homo sapiens, UniProt P34969).
T3 construct: expressed in transfected cells; host or cells: HEK-293
Kind of series: Radioligand binding assay, 5-HT7bR, [3H]-5-CT. Conditions: human 5-HT7b receptor stably expressed in HEK-293 cells; read-out: Ki 5-HT7 [3H]-5-CT.

Series [5] deals with T4, 5-HT1A (Homo sapiens, UniProt P08908).
T4 construct: expressed in transfected cells; host or cells: HEK-293
T4 sequence (P08908 1-422): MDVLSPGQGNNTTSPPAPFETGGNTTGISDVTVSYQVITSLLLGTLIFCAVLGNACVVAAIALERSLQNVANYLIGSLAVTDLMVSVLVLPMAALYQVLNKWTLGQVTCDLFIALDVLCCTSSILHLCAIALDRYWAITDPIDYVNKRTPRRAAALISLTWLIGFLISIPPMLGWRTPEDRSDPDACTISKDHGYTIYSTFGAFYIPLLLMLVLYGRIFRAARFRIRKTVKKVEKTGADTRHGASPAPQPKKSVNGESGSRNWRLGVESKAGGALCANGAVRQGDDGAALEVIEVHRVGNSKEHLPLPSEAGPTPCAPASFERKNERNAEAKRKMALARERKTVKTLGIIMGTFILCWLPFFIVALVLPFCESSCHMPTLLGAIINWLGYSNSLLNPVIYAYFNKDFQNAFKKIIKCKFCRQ
Kind of series: Radioligand binding assay, 5-HT1A, [3H]-8-OH-DPAT. Conditions: human receptor stably expressed in HEK-293 cells.

Series [6] has as its target T5, 5-HT2A (Homo sapiens, UniProt P28223).
T5 construct: expressed in transfected cells; host or cells: HEK-293
Kind of series: Radioligand binding assay, 5-HT2A, [3H]-Ketanserin. Conditions: human receptor stably expressed in HEK-293 cells.

T1 sequence (P50406 whole entry): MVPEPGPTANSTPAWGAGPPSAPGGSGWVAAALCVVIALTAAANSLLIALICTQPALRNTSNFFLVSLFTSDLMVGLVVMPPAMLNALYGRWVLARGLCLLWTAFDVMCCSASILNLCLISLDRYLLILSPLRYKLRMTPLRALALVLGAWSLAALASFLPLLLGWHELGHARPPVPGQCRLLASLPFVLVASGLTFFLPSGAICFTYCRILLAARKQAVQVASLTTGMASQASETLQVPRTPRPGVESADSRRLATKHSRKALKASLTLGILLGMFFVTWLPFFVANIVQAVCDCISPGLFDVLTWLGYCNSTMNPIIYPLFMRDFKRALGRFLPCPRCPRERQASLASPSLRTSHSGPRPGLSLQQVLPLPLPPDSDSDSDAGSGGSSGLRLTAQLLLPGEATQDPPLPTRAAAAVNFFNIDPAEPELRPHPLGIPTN
T3 sequence (P34969 1-432 limits assumed): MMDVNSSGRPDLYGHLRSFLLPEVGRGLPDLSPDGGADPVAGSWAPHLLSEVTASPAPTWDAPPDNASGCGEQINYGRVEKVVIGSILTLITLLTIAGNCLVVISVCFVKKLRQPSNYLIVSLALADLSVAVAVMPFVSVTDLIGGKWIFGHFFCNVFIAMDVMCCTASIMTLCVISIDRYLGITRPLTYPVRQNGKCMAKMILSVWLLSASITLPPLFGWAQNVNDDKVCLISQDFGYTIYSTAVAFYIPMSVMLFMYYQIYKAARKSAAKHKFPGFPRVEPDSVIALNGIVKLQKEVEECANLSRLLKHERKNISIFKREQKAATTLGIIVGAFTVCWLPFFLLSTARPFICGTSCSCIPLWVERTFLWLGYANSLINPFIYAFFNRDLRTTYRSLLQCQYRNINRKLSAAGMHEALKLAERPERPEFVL
T2 sequence (P14416 whole entry): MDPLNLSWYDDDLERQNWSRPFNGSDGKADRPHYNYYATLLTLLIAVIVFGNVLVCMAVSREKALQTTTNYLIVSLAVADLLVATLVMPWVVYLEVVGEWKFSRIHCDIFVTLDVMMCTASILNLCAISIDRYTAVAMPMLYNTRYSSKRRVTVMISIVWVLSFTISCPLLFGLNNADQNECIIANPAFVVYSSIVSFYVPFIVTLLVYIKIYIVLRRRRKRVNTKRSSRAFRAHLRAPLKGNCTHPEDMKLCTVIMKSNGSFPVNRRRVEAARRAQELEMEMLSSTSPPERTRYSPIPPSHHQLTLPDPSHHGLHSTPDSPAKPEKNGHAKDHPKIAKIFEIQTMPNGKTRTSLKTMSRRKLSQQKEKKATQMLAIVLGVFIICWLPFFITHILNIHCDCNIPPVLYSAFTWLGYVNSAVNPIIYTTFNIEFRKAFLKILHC
T5 sequence (P28223 whole entry): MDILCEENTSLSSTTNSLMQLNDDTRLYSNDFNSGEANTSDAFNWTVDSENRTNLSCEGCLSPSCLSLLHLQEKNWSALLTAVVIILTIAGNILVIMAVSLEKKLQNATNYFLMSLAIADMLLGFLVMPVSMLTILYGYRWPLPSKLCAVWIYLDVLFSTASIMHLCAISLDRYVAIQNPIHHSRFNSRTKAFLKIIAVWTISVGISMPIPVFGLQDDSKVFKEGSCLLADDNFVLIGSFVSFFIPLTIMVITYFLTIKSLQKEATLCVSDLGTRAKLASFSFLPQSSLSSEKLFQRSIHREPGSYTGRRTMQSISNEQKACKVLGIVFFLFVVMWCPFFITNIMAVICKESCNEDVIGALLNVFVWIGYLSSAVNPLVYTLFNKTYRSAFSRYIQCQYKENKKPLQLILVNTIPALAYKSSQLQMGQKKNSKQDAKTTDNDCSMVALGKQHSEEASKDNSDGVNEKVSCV

On to `CN1CCN(c2nc(N)nc(Cc3cccc4ccccc34)n2)CC1` [Compound 1, reference compound], for which the RM0 in series [1] is 3.14.
Same read-out and setting: in the case of `CN1CCN(c2nc(N)nc(Cc3cccc(Cl)c3)n2)CC1` [Compound 2, reference compound] it was 3.25.
The same measure, in the same setting: in the case of `Cc1cccc(Cc2nc(N)nc(N3CCN(C)CC3)n2)c1` [Compound 3, reference compound] it was 3.58.
As a reminder, the Ki is the equilibrium dissociation constant of an inhibitor or competing ligand from its target. In the case of `CN1CCN(c2nc(N)nc(CN3C(=O)NC(C)(C)C3=O)n2)CC1` [Compound 4], the Ki turned out to be 0.427 µM in series [2], 22.3 µM in series [3] and 35.8 µM in series [4].
As to `CN1CCN(c2nc(N)nc(CN3C(=O)N(Cc4ccccc4)C(C)(C)C3=O)n2)CC1` [Compound 9, 3-((4-Amino-6-(4-methylpiperazin-1-yl)-1,3,5-triazin-2-yl)methyl)-1-benzyl-5,5-dimethylimidazolidine-2,4-dione], the Ki turned out to be 0.592 µM in series [2]; 8.78 µM in series [3]; 0.35 µM in series [4]; 42.6 µM in series [5]; 1.6 µM in series [6].
For `CN1CCN(c2nc(N)nc(CN3C(=O)N(Cc4cccc(Cl)c4)C(C)(C)C3=O)n2)CC1` [Compound 10, 1-(3-Chlorobenzyl)-3-((4-amino-6-(4-methylpiperazin-1-yl)-1,3,5-triazin-2-yl)methyl)-5,5-dimethylimidazolidine-2,4-dione] the same measures were 0.271 µM, 4.63 µM, 0.159 µM, 13.6 µM and 0.328 µM.
In the same order, the values of `CN1CCN(c2nc(N)nc(CN3C(=O)N(Cc4cc(Cl)ccc4Cl)C(C)(C)C3=O)n2)CC1` [Compound 11, 1-(2,5-Dichlorobenzyl)-3-((4-amino-6-(4-methylpiperazin-1-yl)-1,3,5-triazin-2-yl)methyl)-5,5-dimethylimidazolidine-2,4-dione] are 0.597 µM, 2.87 µM, 0.279 µM, 4.16 µM and 0.809 µM.
As to `CN1CCN(c2nc(N)nc(CN3C(=O)N(Cc4ccc(Cl)cc4Cl)C(C)(C)C3=O)n2)CC1` [Compound 12, 1-(2,4-Dichlorobenzyl)-3-((4-amino-6-(4-methylpiperazin-1-yl)-1,3,5-triazin-2-yl)methyl)-5,5-dimethylimidazolidine-2,4-dione], the Ki stood at 0.205 µM in series [2]; 0.681 µM in series [3]; 1.12 µM in series [4]; 7.69 µM in series [5]; 3.59 µM in series [6].
In the same order, the values of `CN1CCN(c2nc(N)nc(CN3C(=O)N(Cc4ccc(F)cc4)C(C)(C)C3=O)n2)CC1` [Compound 13, 1-(4-Fluorobenzyl)-3-((4-amino-6-(4-methylpiperazin-1-yl)-1,3,5-triazin-2-yl)methyl)-5,5-dimethylimidazolidine-2,4-dione] are 0.663 µM, 6.56 µM, 0.953 µM, 48.4 µM and 3.55 µM.
For `CN1CCN(c2nc(N)nc(CN3C(=O)N(Cc4cccc(F)c4)C(C)(C)C3=O)n2)CC1` [Compound 14, 1-(3-Fluorobenzyl)-3-((4-amino-6-(4-methylpiperazin-1-yl)-1,3,5-triazin-2-yl)methyl)-5,5-dimethylimidazolidine-2,4-dione] the same measures were 0.447 µM, 6.58 µM, 0.088 µM, 37.1 µM and 0.239 µM.
For `CN1CCN(c2nc(N)nc(CN3C(=O)N(Cc4cccc(Br)c4)C(C)(C)C3=O)n2)CC1` [Compound 15, 1-(3-Bromobenzyl)-3-((4-amino-6-(4-methylpiperazin-1-yl)-1,3,5-triazin-2-yl)methyl)-5,5-dimethylimidazolidine-2,4-dione] the same measures were 0.57 µM, 6.68 µM, 0.571 µM, 12.9 µM and 1.33 µM.
As to `COc1cccc(CN2C(=O)N(Cc3nc(N)nc(N4CCN(C)CC4)n3)C(=O)C2(C)C)c1` [Compound 16, 1-(3-Methoxybenzyl)-3-((4-amino-6-(4-methylpiperazin-1-yl)-1,3,5-triazin-2-yl)methyl)-5,5-dimethylimidazolidine-2,4-dione], the Ki in series [2] was 0.692 µM; in series [3], 15.5 µM; in series [4], 3.59 µM; in series [5], 23.9 µM; in series [6], 2.04 µM.
In the same order, the values of `Cc1cccc(CN2C(=O)N(Cc3nc(N)nc(N4CCN(C)CC4)n3)C(=O)C2(C)C)c1` [Compound 17, 1-(3-Methylbenzyl)-3-((4-amino-6-(4-methylpiperazin-1-yl)-1,3,5-triazin-2-yl)methyl)-5,5-dimethylimidazolidine-2,4-dione] are 0.895 µM, 5.21 µM, 0.42 µM, 17 µM and 0.817 µM.
In the same order, the values of `CN1CCN(c2nc(N)nc(CN3C(=O)NC(C)(c4ccccc4)C3=O)n2)CC1` (stereo not shown) [Compound 19, 3-((4-Amino-6-(4-methylpiperazin-1-yl)-1,3,5-triazin-2-yl)methyl)-5-methyl-5-phenylimidazolidine-2,4-dione] are 0.726 µM, 41 µM, 1.1 µM, 31.6 µM and 12.1 µM.
For `CN1CCN(c2nc(N)nc(CN3C(=O)NC(C)(c4cccc(Cl)c4)C3=O)n2)CC1` (stereo not shown) [Compound 20, 3-((4-Amino-6-(4-methylpiperazin-1-yl)-1,3,5-triazin-2-yl)methyl)-5-(3-chlorophenyl)-5-methylimidazolidine-2,4-dione] the same measures were 0.418 µM, 16.8 µM, 0.791 µM, 4.1 µM and 7.4 µM.
For the molecule `CN1CCN(c2nc(N)nc(CN3C(=O)NC(C)(c4cc(Cl)ccc4Cl)C3=O)n2)CC1` (stereo not shown) [Compound 21, 3-((4-Amino-6-(4-methylpiperazin-1-yl)-1,3,5-triazin-2-yl)methyl)-5-(2,5-dichlorophenyl)-5-methylimidazolidine-2,4-dione], the Ki in series [2] worked out at 0.403 µM; in series [3], 11.5 µM; in series [4], 1.56 µM; in series [5] it was 26.2 µM; in series [6], 11.1 µM.
In the same order, the values of `CN1CCN(c2nc(N)nc(CN3C(=O)NC(C)(c4ccc(Cl)cc4Cl)C3=O)n2)CC1` (stereo not shown) [Compound 22, 3-((4-Amino-6-(4-methylpiperazin-1-yl)-1,3,5-triazin-2-yl)methyl)-5-(2,4-dichlorophenyl)-5-methylimidazolidine-2,4-dione] are 0.457 µM, 15.1 µM, 10.1 µM, 14 µM and 10.8 µM.
In the same order, the values of `Cc1ccc(C2(C)NC(=O)N(Cc3nc(N)nc(N4CCN(C)CC4)n3)C2=O)cc1` (stereo not shown) [Compound 24, 3-((4-Amino-6-(4-methylpiperazin-1-yl)-1,3,5-triazin-2-yl)methyl)-5-(4-methylphenyl)-5-methylimidazolidine-2,4-dione] are 0.667 µM, 23.3 µM, 0.564 µM, 22.3 µM and 24.4 µM.

The values are drawn from publication PMC6222450, “Computer-Aided Studies for Novel Arylhydantoin 1,3,5-Triazine Derivatives as 5-HT6 Serotonin Receptor Ligands with Antidepressive-Like, Anxiolytic and Antiobesity Action In Vivo” (Molecules : A Journal of Synthetic Chemistry and Natural …, 2018).
